Laboratory results taken from ChEMBL document CHEMBL1201862, “PubChem BioAssay data set” (2004).
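Results reflect a 48-hour exposure of cells in 96-well plates to compound at five concentrations. The concentration for 50% growth inhibition is given as GI50.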 Activity calls are given as the source filed them. No stated cut-off is given here; in the data, active = GI50 up to about 1.1 µM and inactive = higher.

Columns and labels:
Assay in all cases: NCI-60 cell line screen, 48 h
[1] = system: M14
[2] = system: KM12
[3] = system: 786-0
[4] = system: HOP-92
[5] = system: PC-3
[6] = system: IGROV-1
[7] = system: MDA-MB-231
[8] = system: MCF7
[9] = system: HCC 2998
[10] = system: ACHN
[11] = system: T47D
[12] = system: NCI-H460
[13] = system: UO-31
[14] = system: SK-OV-3
[15] = system: K562
[16] = system: TK-10
[17] = system: SK-MEL-5
[18] = system: SNB-19
[19] = system: DU-145
[20] = system: HCT-116
[21] = system: OVCAR-3
[22] = system: OVCAR-8
[23] = system: RPMI-8226
[24] = system: OVCAR-5
[25] = system: SK-MEL-28
[26] = system: EKVX
[27] = system: UACC-62
[28] = system: CCRF-CEM
[29] = system: SK-MEL-2
[30] = system: MDA-MB-435
[31] = system: HOP-62
[32] = system: NCI/ADR-RES
[33] = system: SN12C
[34] = system: SR
[35] = system: NCI-H23
[36] = system: UACC-257
[37] = system: NCI-H226
[38] = system: HCT-15
[39] = system: MDA-N
[40] = system: LOX IMVI
[41] = system: NCI-H522
[42] = system: SF-268
[43] = system: HL-60
[44] = system: RXF 393
[45] = system: SF-539
[46] = system: SNB-75
[47] = system: SF-295
[48] = system: Hs-578T
[49] = system: BT-549
[50] = system: COLO 205
[51] = system: Malme-3M
[52] = system: A549
[53] = system: HT-29
[54] = system: MOLT-4
[55] = system: U-251
[56] = system: SW-620
[57] = system: CAKI-1
[58] = system: A498
[59] = system: OVCAR-4

In the case of `CN(CCNC(=O)c1cc(-c2ccccc2)nc2ccccc12)CCNC(=O)c1cc(-c2ccccc2)nc2ccccc12`, the GI50 [1] is reported as 2.17 µM (inactive), the GI50 [2] is reported as 4.46 µM (inactive) and the GI50 [3] is reported as 5.96 µM (inactive). For the same compound, the GI50 [4] was 2.61 µM (inactive), the GI50 [5] was 10.3 µM (inactive) and the GI50 [6] was 3.6 µM (inactive). The GI50 [7] was > 50.4 µM (inactive), the GI50 [8] was 3.87 µM (inactive) and the GI50 [9] was 2.43 µM (inactive). For the same compound, the GI50 [10] was > 47 µM (inactive), the GI50 [11] was > 30.5 µM (inactive) and the GI50 [12] was 8.87 µM (inactive). The GI50 [13] was 7.1 µM (inactive), the GI50 [14] was > 100 µM (inactive) and the GI50 [15] was 3.55 µM (inactive). For the same compound, the GI50 [16] was > 100 µM (inactive), the GI50 [17] was 2.31 µM (inactive) and the GI50 [18] was > 60 µM (inactive). For the same compound, the GI50 [19] was 12.5 µM (inactive), the GI50 [20] was 8.05 µM (inactive) and the GI50 [21] was 23 µM (inactive). The GI50 [22] was > 28.1 µM (inactive), the GI50 [23] was 4.99 µM (inactive) and the GI50 [24] was 8.55 µM (inactive). The GI50 [25] was 2.19 µM (inactive), the GI50 [26] was 15.9 µM (inactive) and the GI50 [27] was 12.9 µM (inactive). The GI50 [28] was 4.69 µM (inactive), the GI50 [29] was 4.41 µM (inactive) and the GI50 [30] was 6.92 µM (inactive). For the same compound, the GI50 [31] was 26.1 µM (inactive), the GI50 [32] was > 100 µM (inactive) and the GI50 [33] was > 100 µM (inactive). For the same compound, the GI50 [34] was 2.98 µM (inactive), the GI50 [35] was > 45.4 µM (inactive) and the GI50 [36] was 3.05 µM (inactive). For the same compound, the GI50 [37] was 14.6 µM (inactive), the GI50 [38] was over 80.5 µM and the GI50 [39] was 11.1 µM (inactive). For the same compound, the GI50 [40] was 3.89 µM (inactive), the GI50 [41] was 14.3 µM (inactive) and the GI50 [42] was 8.51 µM (inactive). The GI50 [43] was 4.7 µM (inactive), the GI50 [44] was 8.67 µM (inactive) and the GI50 [45] was 7.71 µM (inactive). For the same compound, the GI50 [46] was 7.53 µM (inactive), the GI50 [47] was 13.2 µM (inactive) and the GI50 [48] was 6.18 µM (inactive). For the same compound, the GI50 [49] was > 100 µM (inactive), the GI50 [50] was 2.22 µM (inactive) and the GI50 [51] was 2.12 µM (inactive). For the same compound, the GI50 [52] was > 100 µM (inactive), the GI50 [53] was 2.14 µM (inactive) and the GI50 [54] was 4.17 µM (inactive). For the same compound, the GI50 [55] was 8.75 µM (inactive), the GI50 [56] was 6.12 µM (inactive) and the GI50 [57] was > 100 µM (inactive). For the same compound, the GI50 [58] was 12.2 µM (inactive).

`NCCNCCCNC(=O)c1cc(-c2ccccc2)nc2ccccc12` was tested, and the GI50 [1] was 15.1 µM (inactive), the GI50 [2] was 33.1 µM (inactive) and the GI50 [3] was 22.3 µM (inactive). The GI50 [4] was 13.7 µM (inactive), the GI50 [5] was 51.3 µM (inactive) and the GI50 [6] was > 100 µM (inactive). The GI50 [7] was 31.3 µM (inactive), the GI50 [8] was 45.4 µM (inactive) and the GI50 [9] was 19.6 µM (inactive). For the same compound, the GI50 [10] was 38.1 µM (inactive), the GI50 [11] was 38.5 µM (inactive) and the GI50 [12] was 35.2 µM (inactive). The GI50 [13] was 46 µM (inactive), the GI50 [14] was 65 µM (inactive) and the GI50 [15] was 23.1 µM (inactive). The GI50 [16] was 62.7 µM (inactive), the GI50 [17] was 15.6 µM (inactive) and the GI50 [18] was 50 µM (inactive). The GI50 [19] was > 100 µM (inactive), the GI50 [20] was 35.6 µM (inactive) and the GI50 [21] was > 100 µM (inactive). For the same compound, the GI50 [22] was 85.5 µM (inactive), the GI50 [23] was 54 µM (inactive) and the GI50 [24] was 46.3 µM (inactive). The GI50 [25] was 16.7 µM (inactive), the GI50 [26] was > 100 µM (inactive) and the GI50 [27] was 19.9 µM (inactive). For the same compound, the GI50 [28] was 21 µM (inactive), the GI50 [29] was 21 µM (inactive) and the GI50 [30] was 20.8 µM (inactive). The GI50 [31] was 27.2 µM (inactive), the GI50 [32] was > 100 µM (inactive) and the GI50 [33] was 40.8 µM (inactive). For the same compound, the GI50 [34] was 28.3 µM (inactive), the GI50 [35] was 30.6 µM (inactive) and the GI50 [36] was 24.1 µM (inactive). The GI50 [37] was > 100 µM (inactive), the GI50 [38] was over 100 µM and the GI50 [39] was 25.5 µM (inactive). For the same compound, the GI50 [40] was 28.3 µM (inactive), the GI50 [41] was 17.6 µM (inactive) and the GI50 [42] was 26.1 µM (inactive). For the same compound, the GI50 [43] was 30.6 µM (inactive), the GI50 [44] was 38.8 µM (inactive) and the GI50 [45] was 19.6 µM (inactive). The GI50 [46] was > 10 µM (inactive), the GI50 [47] was 28.6 µM (inactive) and the GI50 [48] was 48.3 µM (inactive). For the same compound, the GI50 [49] was 55.8 µM (inactive), the GI50 [50] was 16.2 µM (inactive) and the GI50 [51] was 16.8 µM (inactive). The GI50 [52] was 41.6 µM (inactive), the GI50 [53] was 36.2 µM (inactive) and the GI50 [54] was 22.1 µM (inactive). The GI50 [55] was 17.6 µM (inactive), the GI50 [56] was 34 µM (inactive) and the GI50 [57] was 52.4 µM (inactive). The GI50 [58] was 41.7 µM (inactive).

With `O=c1c2cc(I)ccc2nc(SCc2nnco2)n1Cc1ccccc1` the GI50 [1] was > 100 µM (inactive), the GI50 [2] was > 100 µM (inactive) and the GI50 [3] was 35.7 µM (inactive). The GI50 [4] was 35.6 µM (inactive), the GI50 [5] was > 100 µM (inactive) and the GI50 [6] was 80.7 µM (inactive). The GI50 [7] was 78.5 µM (inactive), the GI50 [8] was 81.1 µM (inactive) and the GI50 [9] was 96.2 µM (inactive). The GI50 [10] was > 100 µM (inactive), the GI50 [11] was > 100 µM (inactive) and the GI50 [12] was > 100 µM (inactive). The GI50 [13] was 1.39 µM (inactive), the GI50 [14] was > 100 µM (inactive) and the GI50 [16] was 87.9 µM (inactive). The GI50 [17] was > 100 µM (inactive), the GI50 [18] was > 100 µM (inactive) and the GI50 [19] was > 100 µM (inactive). For the same compound, the GI50 [20] was > 100 µM (inactive), the GI50 [21] was > 100 µM (inactive) and the GI50 [22] was > 100 µM (inactive). The GI50 [23] was > 100 µM (inactive), the GI50 [24] was > 100 µM (inactive) and the GI50 [59] was > 100 µM (inactive). The GI50 [25] was > 100 µM (inactive), the GI50 [26] was 29 µM (inactive) and the GI50 [27] was 73.8 µM (inactive). For the same compound, the GI50 [28] was 10.8 µM (inactive), the GI50 [29] was 81.8 µM (inactive) and the GI50 [30] was > 100 µM (inactive). For the same compound, the GI50 [31] was 98.4 µM (inactive), the GI50 [32] was > 100 µM (inactive) and the GI50 [33] was 49.1 µM (inactive). The GI50 [34] was > 100 µM (inactive), the GI50 [35] was > 100 µM (inactive) and the GI50 [36] was > 100 µM (inactive). The GI50 [37] was > 100 µM (inactive), the GI50 [38] was over 100 µM and the GI50 [39] was > 100 µM (inactive). The GI50 [40] was > 100 µM (inactive), the GI50 [41] was 44 µM (inactive) and the GI50 [42] was > 100 µM (inactive). For the same compound, the GI50 [43] was 17.4 µM (inactive), the GI50 [44] was 58.1 µM (inactive) and the GI50 [45] was > 100 µM (inactive). The GI50 [46] was 56.5 µM (inactive), the GI50 [47] was 98.2 µM (inactive) and the GI50 [48] was 31.7 µM (inactive). The GI50 [49] was > 100 µM (inactive), the GI50 [50] was > 100 µM (inactive) and the GI50 [52] was > 100 µM (inactive). The GI50 [53] was 60.5 µM (inactive), the GI50 [54] was 0.1 µM (active) and the GI50 [55] was > 100 µM (inactive). For the same compound, the GI50 [56] was > 100 µM (inactive), the GI50 [57] was > 100 µM (inactive) and the GI50 [58] was 50.8 µM (inactive).
